Laboratory results published in patent US4001218A, “Penicillins” (Bayer Aktiengesellschaft, priority 1972, dated 1977).

Legend:
Psdm. aerug. F 41 [1] = experiment: animal experiment, Psdm. aerug. F 41 infection; settings: s.c. 4 × 3000 Units per animal
Klebsiella 62 = experiment: animal experiment, Klebsiella 62 infection; settings: 1st day after infection; s.c. 2 × 3000 Units per animal; experiment with Ex.1
Klebsiella 63 [2] = experiment: animal experiment, Klebsiella 63 infection; settings: s.c. 2 × 3000 Units per animal
E. coli 14 = format: cell-based; settings: E. coli 14; 24 hours, 37°C
Proteus vulg. 1017 = format: cell-based, Proteus vulgaris; settings: Proteus 1017; 24 hours, 37°C
Staph. aureus 1756 = experiment: MIC, test tube series dilution test, Staph. aureus 1756; format: cell-based, Staphylococcus aureus; settings: Staph. aureus 1756; 24 hours, 37°C
Psdm. aerug. Walter = experiment: MIC, test tube series dilution test, Psdm. aerug. Walter; format: cell-based, Pseudomonas aeruginosa; settings: Psdm. aerug. Walter; 24 hours, 37°C
Staph. aureus 133 = format: cell-based, Staphylococcus aureus; settings: Staph. aureus 133; 24 hours, 37°C
Klebsiella 63 [3] = experiment: MIC, test tube series dilution test, Klebsiella 63; format: cell-based; settings: Klebsiella 63; 24 hours, 37°C
E. coli A 261 = experiment: MIC, test tube series dilution test, E. coli A 261; format: cell-based; settings: 24 hours, 37°C
Enterococcus 9790 = experiment: MIC, test tube series dilution test, Enterococcus 9790; format: cell-based; settings: 24 hours, 37°C
Proteus morg. 932 = experiment: MIC, test tube series dilution test, Proteus morg. 932; format: cell-based; settings: 24 hours, 37°C
Klebsiella K 10 = experiment: MIC, test tube series dilution test, Klebsiella K 10; format: cell-based; settings: 24 hours, 37°C
Psdm. aerug. F 41 [4] = experiment: MIC, test tube series dilution test, Psdm. aerug. F 41; format: cell-based, Pseudomonas aeruginosa; settings: Psdm. aerug. F 41; 24 hours, 37°C
E. coli 183/58 = experiment: MIC, test tube series dilution test, E. coli 183/58; format: cell-based; settings: 24 hours, 37°C
E. coli C 165 = experiment: MIC, test tube series dilution test, E. coli C 165; format: cell-based; settings: 24 hours, 37°C
[5] = 1st day after infection, experiment with Ex.22
[6] = 1st day after infection, experiment with Ex.29
[7] = 2nd day after infection, experiment with Ex.22
[8] = 2nd day after infection, experiment with Ex.29
[9] = 3rd day after infection, experiment with Ex.29
[10] = 5th day after infection, experiment with Ex.29
[11] = 1st day after infection, experiment with Ex.41
[12] = 1st day after infection, experiment with Ex.7

Structure (SMILES) | MIC (E. coli 14) | MIC (Proteus vulg. 1017) | MIC (Staph. aureus 1756) [U/ml] | MIC (Psdm. aerug. Walter) [U/ml] | MIC (Staph. aureus 133) [U/ml] | MIC (Klebsiella 63 [3]) [U/ml] | MIC (E. coli A 261) [U/ml] | MIC (Enterococcus 9790) | MIC (Proteus morg. 932) | MIC (Klebsiella K 10) [U/ml] | MIC (Psdm. aerug. F 41 [4]) | MIC (E. coli 183/58) [U/ml] | MIC (E. coli C 165) [U/ml] | also measured
CC1(C)S[C@@H]2[C@H](NC(=O)C(C(=O)O)c3ccccc3)C(=O)N2[C@H]1C(=O)O (stereo partly shown) [Carbenicillin, reference compound] |  |  |  |  |  |  |  |  |  |  |  |  |  | Surviving animals (Psdm. aerug. F 41 [1]; [5]): 50%; Surviving animals (Psdm. aerug. F 41 [1]; [6]): 80%; Surviving animals (Psdm. aerug. F 41 [1]; [7]): 0%; Surviving animals (Psdm. aerug. F 41 [1]; [8]): 30%; Surviving animals (Psdm. aerug. F 41 [1]; [9]): 30%; Surviving animals (Psdm. aerug. F 41 [1]; [10]): 20%; Surviving animals (Klebsiella 62): 0%; Surviving animals (Klebsiella 63 [2]; [11]): 0%; Surviving animals (Klebsiella 63 [2]; [12]): 0%
CC1(C)S[C@@H]2[C@H](NC(=O)[C@H](NC(=O)c3ccc(NC(=O)C4CCCC4)cc3)c3ccccc3)C(=O)N2[C@H]1C(=O)O [Example 7, sodium D(-)-α-(4-cyclopentanecarbonylamino-benzoylamino)-benzylpenicillin] | < 1 U/ml | 32 U/ml | 64 | 32 | < 1 | 32 | > 256 | 8 U/ml | 256 U/ml | 32 | 32 U/ml | 8 | 8 | Surviving animals (Klebsiella 63 [2]; [12]): 100%; Surviving animals (Klebsiella 63 [2]; 2nd day after infection, experiment with Ex.7): 100%; Surviving animals (Klebsiella 63 [2]; 3rd day after infection, experiment with Ex.7): 20%
COc1cc(C(=O)Nc2ccc(C(=O)N[C@@H](C(=O)N[C@@H]3C(=O)N4[C@@H]3SC(C)(C)[C@@H]4C(=O)O)c3ccccc3)cc2)cc(OC)c1OC [Example 22, Sodium D(-)-α-(4-[3,4,5-trimethoxybenzoylaminobenzoylamino])-benzylpenicillin] |  | ~ 16 U/ml |  |  | < 1 |  | > 256 |  |  |  |  |  |  | Surviving animals (Psdm. aerug. F 41 [1]; [5]): 80%; Surviving animals (Psdm. aerug. F 41 [1]; [7]): 80%; Surviving animals (Psdm. aerug. F 41 [1]; 3rd day after infection, experiment with Ex.22): 80%
CC1(C)S[C@@H]2[C@H](NC(=O)[C@H](NC(=O)c3ccc(NC(=O)c4ccc(N)cc4)cc3)c3ccccc3)C(=O)N2[C@H]1C(=O)O [Example 29, sodium D(-)-α-[4-(4-aminobenzoylamino)-benzoylamino] -benzylpenicillin] | < 1 U/ml | 256 U/ml | 32 | 32 | < 1 | 64 | > 256 | 4 U/ml | > 256 U/ml | 128 | ~ 32 U/ml | 16 | 4 | Surviving animals (Psdm. aerug. F 41 [1]; [6]): 100%; Surviving animals (Psdm. aerug. F 41 [1]; [8]): 80%; Surviving animals (Psdm. aerug. F 41 [1]; [9]): 70%; Surviving animals (Psdm. aerug. F 41 [1]; [10]): 70%
CC1(C)S[C@@H]2[C@H](NC(=O)[C@H](NC(=O)c3ccc(NC(N)=O)cc3)c3ccccc3)C(=O)N2[C@H]1C(=O)O [Example 30, sodium D(-)-α-(4-carbamoylaminobenzoylamino)-benzylpenicillin] | ~ 32 U/ml | > 256 U/ml | 64 | > 256 | < 1 | 256 | > 256 | 8 U/ml | > 256 U/ml | > 256 | 128 U/ml | 256 | 32 | 
CC1(C)S[C@@H]2[C@H](NC(=O)[C@H](NC(=O)c3ccc(NC(=O)C=Cc4ccccc4)cc3)c3ccccc3)C(=O)N2[C@H]1C(=O)O [Example 35] | < 1 U/ml | ~ 1 U/ml | 8 | 4 | < 1 | 8 | > 256 | ~ 4 U/ml | 128 U/ml | 16 | 4 U/ml | < 1 | 4 | 
CC(N=[N+]=[N-])C(=O)Nc1ccc(C(=O)N[C@@H](C(=O)N[C@@H]2C(=O)N3[C@@H]2SC(C)(C)[C@@H]3C(=O)O)c2ccccc2)cc1 (stereo partly shown) [Example 37] | 4 U/ml | 128 U/ml | 64 | 32 | < 1 | 32 | > 256 | 16 U/ml | ~ 128 U/ml | 64 | ~ 32 U/ml | 16 | 8 | 
CC1(C)S[C@@H]2[C@H](NC(=O)[C@H](NC(=O)c3ccc(NC(=O)CCN=[N+]=[N-])cc3)c3ccccc3)C(=O)N2[C@H]1C(=O)O [Example 38] | 4 U/ml | 32 U/ml | 32 | 32 | < 1 | 64 | > 256 | ~ 16 U/ml | ~ 256 U/ml | 128 | 32 U/ml | 16 | 16 | 
CC1(C)S[C@@H]2[C@H](NC(=O)[C@H](NC(=O)c3ccc(NC=O)cc3)c3ccccc3)C(=O)N2[C@H]1C(=O)O [Example 41, Sodium D(-)-α -(4-formylamino-benzoylamino)-benzylpenicillin] | 8 U/ml | 64 U/ml | 32 | 64 | < 1 | 128 | > 256 | 8 U/ml |  | 128 | 32 U/ml | 64 | 32 | Surviving animals (Klebsiella 63 [2]; [11]): 80%; Surviving animals (Klebsiella 63 [2]; 2nd day after infection, experiment with Ex.41): 50%; Surviving animals (Klebsiella 63 [2]; 3rd day after infection, experiment with Ex.41): 50%; Surviving animals (Klebsiella 63 [2]; 5th day after infection, experiment with Ex.41): 50%
CC1(C)S[C@@H]2[C@H](NC(=O)[C@H](NC(=O)c3ccc(NC(=O)Nc4ccccc4)cc3)c3ccccc3)C(=O)N2[C@H]1C(=O)O [Example 45] | < 1 U/ml | 16 U/ml | 16 | 16 | < 1 | 16 | > 256 | < 1 U/ml | 128 U/ml | 32 | 8 U/ml | 4 | 8 | 
CC1(C)S[C@@H]2[C@H](NC(=O)[C@H](NC(=O)CNC(=O)c3ccc(NC(=O)C4CCCC4)cc3)c3ccccc3)C(=O)N2[C@H]1C(=O)O [Example 66] | 8 U/ml | 32 U/ml | 32 | 128 | < 1 | 32 | > 256 | 32 U/ml | > 256 U/ml | 64 | 64 U/ml | 64 | 32 | 
